Reference: patent publication US11814367B2, “Inhibitors of glycogen synthase 1 (GYS1) and methods of use thereof” (Maze Therapeutics, Inc., priority 2021, dated 2023)

Assays:
[1] = target: hGYS1 enzyme (recombinant hGYS1/GN1 protein) (Homo sapiens (Human), UniProt P13807); assay: GYS1 coupled enzyme assay (PK/LDH); type: biochemical; conditions: hGYS1/GN1 50 nM, UDP-Glucose 0.8 mM, G6P 1 mM; geometric mean of at least 2 runs
[2] = system: hGYS1 enzyme / glycogen synthesis in HeLa cells; assay: GYS1 cell based assay (glycogen synthesis, Glucose-glo); set-up: species or system human; conditions: 24 h incubation, 20 mM glucose, geometric mean of at least 2 runs
Summary of the method: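 HeLa cells starved 24 h in medium containing only 1× Glutamax were plated onto compound in medium with 20 mM glucose (1% DMSO final) for 24 h, 37 °C, 5% CO2. Acid lysates were Tris-quenched, glucoamylase-digested (pH 5.3, 1 h, 37 °C) and read by Glucose-glo luminescence. IC50 came from Hill fits, as geometric mean of ≥2 runs.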

[3] = target: hGYS2 enzyme (recombinant hGYS2/GN1 protein) (Homo sapiens (Human), UniProt P54840); assay: GYS2 coupled enzyme assay (PK/LDH); type: biochemical; conditions: geometric mean of at least 2 assay runs on separate days, read-out: Avg_IC50
Sequence of hGYS2 enzyme (recombinant hGYS2/GN1 protein) (P54840 whole entry): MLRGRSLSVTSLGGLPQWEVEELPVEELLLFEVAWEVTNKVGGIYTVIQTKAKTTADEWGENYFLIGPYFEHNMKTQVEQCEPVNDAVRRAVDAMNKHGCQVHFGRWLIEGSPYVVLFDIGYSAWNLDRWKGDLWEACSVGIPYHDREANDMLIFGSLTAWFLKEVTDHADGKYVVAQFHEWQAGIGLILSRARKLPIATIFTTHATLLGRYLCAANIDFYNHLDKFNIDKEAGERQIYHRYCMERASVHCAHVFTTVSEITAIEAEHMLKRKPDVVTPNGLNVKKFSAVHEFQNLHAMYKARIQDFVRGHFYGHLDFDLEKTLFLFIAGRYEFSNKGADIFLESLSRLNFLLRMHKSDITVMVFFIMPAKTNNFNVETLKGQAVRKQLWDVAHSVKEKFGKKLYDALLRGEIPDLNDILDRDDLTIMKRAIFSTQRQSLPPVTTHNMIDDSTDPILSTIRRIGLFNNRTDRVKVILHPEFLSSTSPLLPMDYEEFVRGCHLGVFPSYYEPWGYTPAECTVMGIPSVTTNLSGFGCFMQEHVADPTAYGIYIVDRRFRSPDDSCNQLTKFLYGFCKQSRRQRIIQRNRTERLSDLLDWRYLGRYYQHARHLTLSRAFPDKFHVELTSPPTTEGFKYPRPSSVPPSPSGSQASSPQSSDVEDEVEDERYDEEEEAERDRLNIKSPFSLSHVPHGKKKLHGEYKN
Sequence of hGYS2 enzyme (recombinant hGYS2/GN1 protein) (P46976 whole entry partner): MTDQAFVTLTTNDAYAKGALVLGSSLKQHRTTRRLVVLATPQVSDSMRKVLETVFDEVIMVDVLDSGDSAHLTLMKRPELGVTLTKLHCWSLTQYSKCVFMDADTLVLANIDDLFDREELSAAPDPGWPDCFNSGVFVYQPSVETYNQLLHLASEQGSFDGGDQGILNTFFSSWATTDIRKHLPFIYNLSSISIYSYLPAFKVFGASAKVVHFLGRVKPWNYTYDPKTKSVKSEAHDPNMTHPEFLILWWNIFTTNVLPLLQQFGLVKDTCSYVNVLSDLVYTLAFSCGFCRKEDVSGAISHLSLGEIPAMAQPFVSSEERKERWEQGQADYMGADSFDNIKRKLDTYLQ
Summary of the method: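 Continuous PK/LDH-coupled readout of NADH loss at 340 nm over 10 min, with 200 nM hGYS2/GN1 and 2 mM each of UDP-glucose, glucose-6-phosphate and PEP, in 50 mM Tris pH 7.5 with 0.2% glycogen and 2.5% DMSO. Slopes were normalized to controls and IC50s fit to a Hill curve from duplicates.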

Sequence of hGYS1 enzyme (recombinant hGYS1/GN1 protein) (P13807 whole entry): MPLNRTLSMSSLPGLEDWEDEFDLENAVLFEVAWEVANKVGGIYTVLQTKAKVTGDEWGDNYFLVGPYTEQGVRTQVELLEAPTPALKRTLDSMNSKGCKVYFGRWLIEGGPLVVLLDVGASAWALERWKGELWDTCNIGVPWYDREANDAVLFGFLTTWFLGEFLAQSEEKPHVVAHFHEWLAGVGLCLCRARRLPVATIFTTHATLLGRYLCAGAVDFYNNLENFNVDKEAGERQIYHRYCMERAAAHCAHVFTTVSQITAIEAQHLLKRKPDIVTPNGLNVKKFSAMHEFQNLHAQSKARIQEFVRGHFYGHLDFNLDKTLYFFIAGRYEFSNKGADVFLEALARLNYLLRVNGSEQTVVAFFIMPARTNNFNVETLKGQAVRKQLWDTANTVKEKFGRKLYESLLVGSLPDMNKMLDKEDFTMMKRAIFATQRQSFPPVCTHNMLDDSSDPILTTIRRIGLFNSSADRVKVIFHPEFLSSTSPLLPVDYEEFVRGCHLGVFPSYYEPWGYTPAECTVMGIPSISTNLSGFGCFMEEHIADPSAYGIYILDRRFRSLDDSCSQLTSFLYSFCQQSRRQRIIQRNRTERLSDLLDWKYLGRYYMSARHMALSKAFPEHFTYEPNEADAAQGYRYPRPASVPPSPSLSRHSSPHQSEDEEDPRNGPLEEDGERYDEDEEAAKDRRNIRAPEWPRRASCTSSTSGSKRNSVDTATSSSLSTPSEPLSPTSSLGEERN
Sequence of hGYS1 enzyme (recombinant hGYS1/GN1 protein) (P46976 whole entry partner): as the sequence (P46976 whole entry partner) above

Compound	IC50 [1]	IC50 ([2]; Homo sapiens, HeLa, 24 h)	IC50 [3]	IC50 [2]
CC(C)c1ccc([C@@H](NC(=O)[C@@H]2C[C@@H](F)CN2C(=O)Cn2nccc2C(F)F)c2ccccc2)nc1F [Compound 783, (2S,4R)-1-{2-[5-(difluoromethyl)-1H-pyrazol-1-yl]acetyl}-4-fluoro-N-[(S)-[6-fluoro-5-(propan-2-yl)pyridin-2-yl](phenyl)methyl] pyrrolidine-2-carboxamide]	5 nM	80 nM	> 100000 nM	–
CC(=O)N1C[C@H](F)C[C@H]1C(=O)NC(c1cccc(-c2ccn[nH]2)c1)c1ccc(C(C)C)c(F)n1 (single isomer, unassigned) [Compound 690, (2S,4R)-1-acetyl-4-fluoro-N-[(S) or (R)-[6-fluoro-5-(propan-2-yl)pyridin-2-yl][3-(1H-pyrazol-5-yl)phenyl]methyl] pyrrolidine-2-carboxamide]	47 nM	900 nM	> 100000 nM	–
CC(C)c1ccc([C@@H](NC(=O)[C@@H]2C[C@@H](F)CN2C(=O)Cc2[nH]nnc2N2CCOCC2)c2ccccc2)cc1F [Compound 371, (2S,4R)-4-fluoro-N-[(S)-[3-fluoro-4-(propan-2-yl)phenyl](phenyl)methyl]-1-{2-[4-(morpholin-4-yl)-1H-1,2,3-triazol-5-yl]acetyl}pyrrolidine-2-carboxamide]	343 nM	3880 nM	> 100000 nM	–
CC(C)c1ccc([C@@H](NC(=O)[C@@H]2C[C@@H](F)CN2C(=O)Cn2ncc(N(C)C)n2)c2ccccc2)nc1F [Compound 392, (2S,4R)-1-{2-[4-(dimethylamino)-2H-1,2,3-triazol-2-yl]acetyl}-4-fluoro-N-[(S)-[6-fluoro-5-(propan-2-yl)pyridin-2-yl](phenyl)methyl] pyrrolidine-2-carboxamide]	5 nM	100 nM	> 100000 nM	–
CC(C)c1ccc([C@@H](NC(=O)[C@@H]2C[C@@H](F)CN2C(=O)[C@H]2CNC(=O)O2)c2ccccc2)cc1F [Compound 382, (2S,4R)-4-fluoro-N-[(S)-[3-fluoro-4-(propan-2-yl)phenyl](phenyl)methyl]-1-[(5R)-2-oxo-1,3-oxazolidine-5-carbonyl]pyrrolidine-2-carboxamide]	34 nM	520 nM	> 100000 nM	–
CCn1c(=O)ccn(CC(=O)N2C[C@H](F)C[C@H]2C(=O)N[C@@H](c2ccccc2)c2ccc(C(C)C)c(F)n2)c1=O [Compound 786, (2S,4R)-1-[2-(3-ethyl-2,4-dioxo-1,2,3,4-tetrahydropyrimidin-1-yl)acetyl]-4-fluoro-N-[(S)-[6-fluoro-5-(propan-2-yl)pyridin-2-yl](phenyl)methyl] pyrrolidine-2-carboxamide]	3 nM	50 nM	> 100000 nM	–
CC(C)c1ccc([C@@H](NC(=O)[C@@H]2C[C@@H](F)CN2C(=O)CNC(=O)N(C)C)c2ccccc2)nc1F [Compound 394, (2S,4R)-1-{2-[(dimethylcarbamoyl)amino]acetyl}-4-fluoro-N-[(S)-[6-fluoro-5-(propan-2-yl)pyridin-2-yl](phenyl)methyl] pyrrolidine-2-carboxamide]	7 nM	150 nM	> 100000 nM	–
CC(C)c1ccc([C@@H](NC(=O)[C@@H]2C[C@@H](F)CN2C(=O)Cc2nn(C)c(=O)n2C)c2ccccc2)nc1F [Compound 779, (2S,4R)-1-[2-(1,4-dimethyl-5-oxo-4,5-dihydro-1H-1,2,4-triazol-3-yl)acetyl]-4-fluoro-N-[(S)-[6-fluoro-5-(propan-2-yl)pyridin-2-yl](phenyl)methyl] pyrrolidine-2-carboxamide]	–	330 nM	> 100000 nM	–
CC(C)c1ccc(C(NC(=O)[C@@H]2C[C@@H](F)CN2C(=O)Cc2cnn[nH]2)c2cccc(-c3cnco3)c2)nc1F (single isomer, unassigned) [Compound 693, (2S,4R)-4-fluoro-N-[(S) or (R)-[6-fluoro-5-(propan-2-yl)pyridin-2-yl][3-(1,3-oxazol-5-yl)phenyl]methyl]-1-[2-(1H-1,2,3-triazol-5-yl)acetyl]pyrrolidine-2-carboxamide]	56 nM	–	–	1150 nM
CC(C)c1ccc(C(NC(=O)[C@@H]2C[C@@H](F)CN2C(=O)Cc2cnn[nH]2)C2CC2)cc1F (single isomer, unassigned) [Compound 652, (2S,4R)-N-[(S) or (R)-cyclopropyl[3-fluoro-4-(propan-2-yl)phenyl]methyl]-4-fluoro-1-[2-(1H-1,2,3-triazol-5-yl)acetyl]pyrrolidine-2-carboxamide]	1200 nM	21600 nM	–	–
O=C(N[C@@H](c1ccccc1)c1ccc(C2CC2)c(F)n1)[C@@H]1C[C@@H](F)CN1C(=O)Cc1nc(C(F)(F)F)co1 [Compound 738, (2S,4R)-N-[(S)-(5-cyclopropyl-6-fluoropyridin-2-yl)(phenyl)methyl]-4-fluoro-1-{2-[4-(trifluoromethyl)-1,3-oxazol-2-yl]acetyl}pyrrolidine-2-carboxamide]	105 nM	1210 nM	–	–
CC(C)c1ccc(C(NC(=O)[C@@H]2C[C@@H](F)CN2C(=O)Cc2cnn[nH]2)c2ccccc2)cc1C(F)(F)F (single isomer, unassigned) [Compound 683, (2S,4R)-4-fluoro-N-[(S) or (R)-phenyl[4-(propan-2-yl)-3-(trifluoromethyl)phenyl]methyl]-1-[2-(1H-1,2,3-triazol-5-yl)acetyl]pyrrolidine-2-carboxamide]	2360 nM	> 30000 nM	–	–
CC(C)c1cnc(C(NC(=O)[C@@H]2C[C@@H](F)CN2C(=O)Cc2cnn[nH]2)c2ccccc2)cc1C(F)(F)F (single isomer, unassigned) [Compound 608, (2S,4R)-4-fluoro-N-[(S) or (R)-phenyl[5-(propan-2-yl)-4-(trifluoromethyl)pyridin-2-yl]methyl]-1-[2-(1H-1,2,3-triazol-5-yl)acetyl]pyrrolidine-2-carboxamide]	2860 nM	> 10000 nM	–	–
CCn1cc(CC(=O)N2C[C@H](F)C[C@H]2C(=O)N[C@@H](c2ccccc2)c2ccc(C3CC(F)(F)C3)c(F)n2)cc(C)c1=O [Compound 523, (2S,4R)-N-[(S)-[5-(3,3-difluorocyclobutyl)-6-fluoropyridin-2-yl](phenyl)methyl]-1-[2-(1-ethyl-5-methyl-6-oxo-1,6-dihydropyridin-3-yl)acetyl]-4-fluoropyrrolidine-2-carboxamide]	5 nM	80 nM	–	–
CC(C)c1ccc(C(NC(=O)[C@@H]2C[C@@H](F)CN2C(=O)Cc2cnn[nH]2)c2cccc(-c3cnco3)c2)nc1F (single isomer, unassigned) [Compound 692, (2S,4R)-4-fluoro-N-[(R) or (S)-[6-fluoro-5-(propan-2-yl)pyridin-2-yl][3-(1,3-oxazol-5-yl)phenyl]methyl]-1-[2-(1H-1,2,3-triazol-5-yl)acetyl]pyrrolidine-2-carboxamide]	2480 nM	–	–	> 30000 nM
CC(C)(C)OC(=O)n1c(CC(=O)N2C[C@H](F)C[C@H]2C(=O)N[C@@H](c2ccccc2)c2ccc(C3CC3)c(F)c2)cc2ccccc21 [Compound 461, tert-butyl 2-{2-[(2S,4R)-2-{[(S)-(4-cyclopropyl-3-fluorophenyl)(phenyl)methyl]carbamoyl}-4-fluoropyrrolidin-1-yl]-2-oxoethyl}-1H-indole-1-carboxylate]	26 nM	570 nM	–	–
Cc1cc(C(F)F)nn1CC(=O)N1C[C@H](F)C[C@H]1C(=O)N[C@@H](c1ccccc1)c1ccc(C(C)C)c(F)n1 [Compound 804, (2S,4R)-1-{2-[3-(difluoromethyl)-5-methyl-1H-pyrazol-1-yl]acetyl}-4-fluoro-N-[(S)-[6-fluoro-5-(propan-2-yl)pyridin-2-yl](phenyl)methyl] pyrrolidine-2-carboxamide]	17 nM	140 nM	–	–
O=C(N[C@@H](c1ccccc1)c1ccc(C2CC2)c(F)c1)[C@@H]1C[C@@H](F)CN1C(=O)Cc1cc2ccccc2[nH]1 [Compound 460, (2S,4R)-N-[(S)-(4-cyclopropyl-3-fluorophenyl)(phenyl)methyl]-4-fluoro-1-[2-(1H-indol-2-yl)acetyl] pyrrolidine-2-carboxamide]	187 nM	2420 nM	–	–
Cn1ncc(CC(=O)N2C[C@H](F)C[C@H]2C(=O)N[C@@H](c2ccccc2)c2ccc(C3CC3)c(F)n2)c1C(F)F [Compound 751, (2S,4R)-N-[(S)-(5-cyclopropyl-6-fluoropyridin-2-yl)(phenyl)methyl]-1-{2-[5-(difluoromethyl)-1-methyl-1H-pyrazol-4-yl]acetyl}-4-fluoropyrrolidine-2-carboxamide]	13 nM	470 nM	–	–
CC(C)c1ccc([C@@H](NC(=O)[C@@H]2C[C@@H](F)CN2C(=O)Cn2cnnc2)c2ccccc2)nc1 [Compound 285, (2S,4R)-4-fluoro-N-[(S)-phenyl[5-(propan-2-yl)pyridin-2-yl]methyl]-1-[2-(4H-1,2,4-triazol-4-yl)acetyl]pyrrolidine-2-carboxamide]	149 nM	> 18600 nM	–	–
O=C(N[C@@H](c1ccccc1)c1ccc(C2CC2)c(F)n1)[C@@H]1C[C@@H](F)CN1C(=O)Cn1nncc1N1CC(F)(F)C1 [Compound 758, (2S,4R)-N-[(S)-(5-cyclopropyl-6-fluoropyridin-2-yl)(phenyl)methyl]-1-{2-[5-(3,3-difluoroazetidin-1-yl)-1H-1,2,3-triazol-1-yl]acetyl}-4-fluoropyrrolidine-2-carboxamide]	32 nM	1160 nM	–	–
